We go through three compounds from US8383662B2, “Bicyclic heteroaryl compounds” (National Chiao Tung University, priority 2006, dated 2013).

The subject of assay [1] is 4T1^LUC+ cells. Nature of the assay: In vivo assay on inhibiting spontaneous metastasis. The arrangement: species or system BALB/c mice. Particulars: 50 mg/kg i.p. once daily; for luminescent signal intensity (metastatic tumor burden): end of the fourth week after compound treatment (sixth week after implantation), FIG. 2. The method, then:
To investigate the effect of test compounds on distant spontaneous metastasis generated by the tumor cells, 4T1^LUC+ cells obtained by the method described in Example 188 were implanted into the right inguinal mammary fat pads of 6-week old BALB/c mice (1×10^5 cells in 100 μL PBS/mouse). After 14 days of tumor cell implantation, a single dose of 50 mg/kg body weight of a test compound or vehicle was administered intraperitoneally once daily. Compounds 2, 56, and 91 were used in this assay. Sorafenib (Nexavar®) and sunitinib (Sutent®) were also used as reference compounds.
A total of 36 mice, six for each of the six groups (i.e., 5 groups treated with test compounds and 1 vehicle group), were imaged once weekly for a period of 6 weeks after tumor cell implantation via bioluminescence imaging.
In vivo bioluminescence imaging was conducted on a cryogenically cooled IVIS™ system (Xenogen Corp., Alameda, Calif.) coupled to a data-acquisition PC running Living Image version 3.1 software (Xenogen Corp.). Before imaging, animals were anesthetized in a plastic chamber filled with 2% isofluorane/air mixture and 150 mg/mL of luciferin (potassium salt, Xenogen Corp.) and normal saline was injected (i.p.) into each mouse at a dose of 150 mg/kg body weight. This dose and route of administration has been previously shown to be optimal for studies in rodents when images were acquired between 10 and 20 minutes post-luciferin administration (Contag C H et al. 1997 Photochem Photobiol.; 66:523-531). During image acquisition, isofluorane anesthesia was maintained using a nose cone delivery system and animal body temperature was regulated using a digitally thermostated bed integrated within the IVIS™ system (Xenogen Corp., Alameda, Calif.). A gray scale body surface image was collected in the chamber under dim illumination, followed by acquisition and overlay of the pseudocolor image representing the spatial distribution of detected photon counts emerging from active luciferase within the animal. An integration time of 1 minute was used for luminescent image acquisition.
The average of the in vivo bioluminescence intensities measured on the 14th day post tumor cell implantation but before treatment with test compounds severed as a baseline, corresponding to the metastatic tumor burden of the vehicle group, as shown in FIG. 2.

Assay [2] concerns 4T1^LUC+ cells. Nature of the assay: Effects on tumor recurrence and survival rate. The class given is in vivo, BALB/c mice. The settings on record: 50 mg/kg i.p. once daily; for overall survival life span: compared with vehicle group, FIG. 4; for luminescent signal intensity after tumor resection (tumor recurrence): sustain treatment vs stop treatment, FIG. 3. How it is done:
4T1^LUC+ cells obtained by the method described in Example 188 were implanted into the right inguinal mammary fat pads of 6 to 8-week old female BALB/c mice (1×10^5 cells in 100 μL PBS/mouse). After 14 days of tumor cell implantation, a single dose of 50 mg/kg body weight of a test compound or vehicle (PBS) was administered intraperitoneally once daily for three weeks. Compounds 2, 56, and 91 were tested in this assay. Sorafenib (Nexavar®) and sunitinib (Sutent®) were also used as reference compounds.
At the end of three-week treatment, the orthotopically grown tumors were surgically removed from the six groups of mice (i.e., 5 groups each treated with a test compound and 1 vehicle group). Then each of the six groups (i.e., 5 groups each treated with a test compound and 1 vehicle group) were divided into two subgroups, one with no further drug treatment (denoted as “stop treatment” in FIG. 3) and the other with continued drug treatment for 35 days (denoted as the “sustain treatment” in FIG. 3).
Bioluminescent data were collected in a manner similar to that described in Example 189 above at the end of day 35 after tumor resection.

Assay [3] deals with T1, VEGF receptor 3 (Homo sapiens, UniProt P35916).
T1 construct: lyse the cells and solubilize the VEGFR3; endogenous in cells; host or cells: H928 cells
T1 sequence (P35916 25-1363): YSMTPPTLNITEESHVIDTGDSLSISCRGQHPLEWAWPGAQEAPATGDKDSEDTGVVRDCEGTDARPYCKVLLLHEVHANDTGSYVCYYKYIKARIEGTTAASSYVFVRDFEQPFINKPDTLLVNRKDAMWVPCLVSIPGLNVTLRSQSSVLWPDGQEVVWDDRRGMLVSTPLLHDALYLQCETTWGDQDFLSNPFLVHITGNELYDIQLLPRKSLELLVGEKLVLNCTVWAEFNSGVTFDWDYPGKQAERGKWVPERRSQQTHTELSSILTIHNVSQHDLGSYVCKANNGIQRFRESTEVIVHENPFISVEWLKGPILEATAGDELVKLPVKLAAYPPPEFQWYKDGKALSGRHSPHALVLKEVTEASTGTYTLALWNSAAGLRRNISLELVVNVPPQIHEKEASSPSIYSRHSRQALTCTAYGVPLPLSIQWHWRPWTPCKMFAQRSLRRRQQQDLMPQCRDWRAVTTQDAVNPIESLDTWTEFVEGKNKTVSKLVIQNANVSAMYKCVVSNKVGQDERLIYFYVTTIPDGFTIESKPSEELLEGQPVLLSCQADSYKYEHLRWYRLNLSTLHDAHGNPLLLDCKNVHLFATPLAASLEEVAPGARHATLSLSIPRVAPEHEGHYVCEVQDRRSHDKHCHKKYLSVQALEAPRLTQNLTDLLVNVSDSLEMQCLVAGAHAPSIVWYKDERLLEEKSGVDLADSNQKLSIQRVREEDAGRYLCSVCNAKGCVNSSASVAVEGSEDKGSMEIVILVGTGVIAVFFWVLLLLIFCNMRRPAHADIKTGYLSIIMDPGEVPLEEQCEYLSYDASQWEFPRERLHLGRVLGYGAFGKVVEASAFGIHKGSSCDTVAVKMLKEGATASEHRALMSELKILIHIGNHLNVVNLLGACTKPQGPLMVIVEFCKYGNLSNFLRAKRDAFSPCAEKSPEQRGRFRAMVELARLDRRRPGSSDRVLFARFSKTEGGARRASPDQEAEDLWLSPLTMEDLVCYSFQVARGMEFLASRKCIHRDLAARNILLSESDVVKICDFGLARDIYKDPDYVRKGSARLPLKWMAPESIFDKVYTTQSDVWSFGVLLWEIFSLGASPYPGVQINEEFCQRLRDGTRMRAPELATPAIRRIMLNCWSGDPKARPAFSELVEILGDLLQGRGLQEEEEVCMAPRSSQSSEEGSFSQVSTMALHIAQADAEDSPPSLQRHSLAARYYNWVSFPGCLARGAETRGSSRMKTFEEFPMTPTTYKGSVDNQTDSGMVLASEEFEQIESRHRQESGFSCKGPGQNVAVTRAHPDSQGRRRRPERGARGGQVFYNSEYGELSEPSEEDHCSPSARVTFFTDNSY
Nature of the assay: KIRA-ELISA assay (VEGFR3 phosphotyrosine after VEGF-C stimulation). The format is cell-based. Particulars: NCI-H928, H928 cells stimulated by recombinant VEGF-C, read-out: inhibition percentage. The method, then:
This assay was performed in two microtiter plates. The first plate was used to culture an adherent cell line expressing the VEGF receptor 3 and to stimulate the receptor with a test compound. The second plate was used to capture the solubilized membrane receptor, which was then probed for phosphotyrosine content with phosphotyrosine-specific antibody.
Specifically, H928 cells (2×10^5) in 100 μl medium were added to each well in a flat-bottom 24-well culture plate and cultured overnight at 37° C. in 5% CO2. After the supernatants were removed, the cells were serum-starved for 24 hours. A medium containing a test compound was added into each well and the cell culture was incubated for 30 minutes before it was stimulated by recombinant VEGF-C for 15 minutes. After the supernatants were removed, 100 μl of a lysis buffer were added into each well to lyse the cells and solubilize the VEGFR3. […] The absorbance at 450 nm and the absorbance at a reference wavelength of 650 nm (A450/650) were measured using an ELISA reader.
The inhibition efficacy of each test compound is expressed as an inhibition percentage calculated according to the following formula: 1−[(C−A)/(B−A)]. In this formula, A is the basal amount of phosphotyrosine detected in a blank control, B is the amount of phosphotyrosine detected with VEGF-C only, and C is the amount of phosphotyrosine detected with a test compound and VEGF-C.

Assay [4] has as its system 4T1^LUC+ cells (murine 4T1 breast cancer). The experiment in a line: In vivo assay on tumor growth inhibition. The arrangement: species or system BALB/c mice. The method, then: Compounds were tested for their efficacy in inhibiting tumor growth on murine tumor xenografts.
Murine 4T1 breast cancer cells (purchased from the American Type Culture Collection) were cultured to sub confluence in RPMI medium supplemented with 10% fetal bovine serum (GIBCO Invitrogen Corp.) at 37° C., 90% humidity and 5% CO2. The 4T1^LUC+ cells were established by the stable transfection of the firefly luciferase gene (pGL3-control, Promega Corporation) to 4T1 cells using LipofectAMINE PLUS Reagent (Life Technologies, Inc., Grand Island, N.Y.) for quantitative assessment of tumor burden in visceral organs. pcDNA3 vector (Invitrogen Co., Carlsbad, Calif.) was cotransfected for the selection by G418 (Sigma). The resulting 4T1^LUC+ colonies were isolated and cultured independently and the best expressing lines were identified based on the level of bioluminescent activity in the presence of luciferin in living cells. Highly bioluminescent clone was selected for further studies. […]
The length (i.e., the biggest diameter) and width (i.e., the smallest diameter) of the tumor was measured every 3.5 days by using a Vernier caliper. The tumor volume was then calculated as follows: volume=A×B^2×0.52, where A is the length of the tumor and B is the width of the tumor.

Assay [5] relates to 4T1 cells / 4T1^luc+ cells. Nature of the assay: Effects on tumor self-seeding. The class given is in vivo, BALB/c mice. Particulars: 50 mg/kg orally once daily. How it is done: Unlabeled parental 4T1 cells were implanted into a mammary gland of 6 to 8-week old female BALB/c mice (1×10^5 cells in 100 μL PBS/mouse). After 14 days of tumor cell implantation, a single dose of 50 mg/kg body weight of a test compound or vehicle (PBS) was administered orally once daily for 2 days. Compound 56 was tested in this assay. Sunitinib (Sutent®) was used as a reference compound. Then 4T1^luc+ cells (1×10^5 cells in 100 μL PBS/mouse) were injected into the circulatory system of the mice by intracardiac injection. The mice were then administered orally with a single dose of 50 mg/kg body weight of a test compound or vehicle (PBS) once daily for 2 days.
Bioluminescent data were collected in a manner similar to that described in Example 189 above.

Take `COC(=O)c1ccc2c(c1)nc(-c1ccc3cn(CCC(c4ccccc4)c4ccccc4)nc3c1)n2CCC1=CCCCC1` [Compound 2]: in assay [1], the “inhibition of spontaneous metastasis compared with Sorafenib and sunitinib” value is recorded as “comparable or superior to the commercial drugs”; the “luminescent signal intensity (metastatic tumor burden)” value was “significant lower luminescent signal intensity as compared with the vehicle group”. Besides, the “overall survival life span” value in assay [2] is reported as “increased the overall survival life span of the treated mice as compared with those in the vehicle group”. Further, the “luminescent signal intensity after tumor resection (tumor recurrence)” value in assay [2] (day 35 after tumor resection) was “lower luminescent signal intensity as compared with the corresponding group without continuous treatment”. Besides, the inhibition (as a rule, the share of the control response that was lost under treatment) at 1 µM in assay [3] is approximately 65%.
Consider `CCCCc1nc2cccc(-c3nc4cc(C(=O)O)ccc4n3CC(C)C)c2n1CCCC` [Compound 91], for which, in assay [1], the “inhibition of spontaneous metastasis compared with Sorafenib and sunitinib” value is reported as “comparable or superior to the commercial drugs”; the “luminescent signal intensity (metastatic tumor burden)” value is on record as “significant lower luminescent signal intensity as compared with the vehicle group”. In addition, the “overall survival life span” value in assay [2] is “increased the overall survival life span of the treated mice as compared with those in the vehicle group”. Moreover, in assay [2] (day 35 after tumor resection), the “luminescent signal intensity after tumor resection (tumor recurrence)” value is on record as “lower luminescent signal intensity as compared with the corresponding group without continuous treatment”.
As to `CCCCc1nc2cccc(-c3nc4cc(C(=O)OC)ccc4n3CC(C)C)c2n1CCCC` [Compound 56], in assay [1], the “inhibition of spontaneous metastasis compared with Sorafenib and sunitinib” value is listed as “comparable or superior to the commercial drugs”; the “luminescent signal intensity (metastatic tumor burden)” value is on record as “did not exhibit any detectable luminescent signal”. Besides, in assay [4] (50 mg/kg intraperitoneally once daily from day 14 after implantation, FIG. 1), the “tumor growth inhibition (tumor volume)” value was “inhibited tumor growth almost as effectively as Sutent and Sorafenib”. Moreover, in assay [4] (50 mg/kg intraperitoneally once daily, compared with Sorafenib-treated mice), the survival rate result was “higher survival rate than those treated with Sorafenib”. In addition, the “overall survival life span” value in assay [2] is recorded as “increased the overall survival life span of the treated mice as compared with those in the vehicle group”. In assay [2] (day 35 after tumor resection), the “tumor recurrence reduction compared with sunitinib” value is given as “reduced tumor recurrence to a degree comparable to that of sunitinib” and the “luminescent signal intensity after tumor resection (tumor recurrence)” value is “lower luminescent signal intensity as compared with the corresponding group without continuous treatment”. The “ability in inhibiting tumor self-seeding compared with Sutent” value in assay [5] is “comparable or even superior ability in inhibiting tumor self-seeding to that of Sutent”. Moreover, in assay [5] (day 7 post the second 2-day drug treatment, compared with vehicle group, FIGS. 5A and 5B), the “bioluminescence from the thoracic cavity” value is “much weaker bioluminescence from the thoracic cavity”. Also, in assay [5] (day 14 post the second 2-day drug treatment), the “bioluminescence from the abdominal cavity compared with Sutent-treated group” value is “weaker bioluminescence form the abdominal cavity”. Besides, in assay [5] (day 14 post the second 2-day drug treatment, compared with vehicle group), the “bioluminescence from the abdominal cavity” value is “much weaker bioluminescence form the abdominal cavity”.
